This assay is described as follows: in vitro colour development test with lysine solution (Bobin et al.). Here is the method:
0.02 mol/l of lysine are dissolved in a phosphate buffer system in accordance with DIN 19268 (pH 7). 10 ml of this solution are treated with 0.002 mol of 1,3-bis(trimethylsiloxy)-2-propanone and the mixture is stirred at 32-35° C. for 72 h.
As comparison, 10 ml of the lysine solution are treated with 0.002 mol of dihydroxyacetone and stirred at 32-35° C. for 72 h.

Data on 1 molecule can be found in US20070092460A1, “Silylated compounds as precursors for self-tanning compositions” (priority 2000, published 2007).

Take `C[Si](C)(C)OCC(=O)CO[Si](C)(C)C` [1,3-bis(trimethylsiloxy)-2-propanone, 1,3-bis(Trimethylsiloxy)-2-propanone]: the brown coloration result (0.002 mol substance in 10 ml of 0.02 mol/l lysine in phosphate buffer pH 7, stirred at 32-35° C. for 72 h) was “comparable brown coloration”. Also, the “rate of development of the brown coloration” value (compared with dihydroxyacetone, lysine in phosphate buffer pH 7, 32-35° C.) is listed as “develops more slowly”.
